Reference: patent publication US20220280594A1, “APPLICATION OF POLYPEPTIDE OR DERIVATIVE THEREOF” (CHENGDU HUITAI BIOMEDICINE CO., LTD., priority 2019, published 2022)
Ends that are not written are not given here. PEG = not defined here

How the values were obtained:
Assay type in all cases: cell-based
[1] = tested on: human pharyngeal squamous-cell carcinoma cells (Fadu); test: scratch assay, migration of Fadu cells; conditions: 10 μM, 48 hours, control group 28.76 ± 4.08
How it was run: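 Confluent Fadu monolayers scratched, then cultured 48 h with 10 μM polypeptide in medium with 2% FBS; PBS control, triplicate wells. Migration rate (%) = (original − current scratch width)/original width × 100, from ≥3 images per well.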

[2] = tested on: human melanoma cells (A375); test: scratch assay, migration of A375 cells; conditions: A375, 10 μM, 48 hours; control group 44.03 ± 6.21
How it was run: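 Monolayers scratched, washed with PBS and cultured 48 hours in 2% FBS medium with polypeptides N1-N54 at 10 μM or PBS control, three wells per group. Migration rate (%) = (original − current scratch width)/original width×100, from imaged scratch widths.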

[3] = tested on: human breast cancer cells (MCF-7); test: scratch assay, migration of MCF-7 cells; conditions: MCF-7, 10 μM, 48 hours; control group 30.97 ± 1.79
How it was run: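 MCF-7 monolayers scratched, then cultured 48 hours in 2% FBS medium with test peptide at 10 μM versus PBS control, triplicate wells. Migration rate (%) = (original − current scratch width)/original width × 100, measured from images.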

[4] = tested on: human colon cancer cells (HCT-116); test: scratch assay, migration of HCT-116 cells; conditions: HCT-116, 10 μM, 48 hours; control group 47.78 ± 6.07
How it was run: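 Confluent HCT-116 monolayers were scratched, washed and cultured 48 h in 2% FBS medium with peptide at 10 μM versus PBS control, triplicate wells. Migration rate (%) = (original minus current scratch width)/original width × 100, from at least 3 images per well.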

[5] = tested on: human breast cancer cells (MDA-MB-231); test: scratch assay, migration of MDA-MB-231 cells; conditions: MDA-MB-231, 10 μM, 48 hours; control group 36.19 ± 5.15
How it was run: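 MDA-MB-231 monolayers (1-2×10^5 cells/well) were scratched, then kept 48 h in medium with 2% FBS containing polypeptide at 10 μM, with a PBS control, in triplicate wells. Migration rate (%) was taken from scratch width: (original − current)/original ×100.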

[6] = tested on: human lung squamous carcinoma cells (NCI-H226); test: scratch assay, migration of NCI-H226 cells; conditions: NCI-H226, 10 μM, 48 hours; control group 65.31 ± 3.19
How it was run: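 A straight scratch was made in confluent NCI-H226 monolayers (1-2×10^5 cells/well). Cells were then kept 48 h in 2% FBS medium with 10 μM polypeptide or PBS control, triplicate wells. Migration rate (%) = (original − current scratch width)/original width ×100, from imaged scratch widths.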

[7] = tested on: human lung cancer cells (95D); test: scratch assay, migration of 95D cells; conditions: 10 μM, 48 hours, control group 55.3 ± 3.19
How it was run: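 Confluent 95D monolayers were scratched, washed with PBS and cultured 48 h in 2% FBS medium containing peptide (10 μM) or PBS control, in triplicate wells. Scratch width was measured on images; migration rate (%) = (original width − current width)/original width × 100.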

[8] = tested on: human non-small cell lung cancer cells (A549); test: scratch assay, migration of A549 cells; conditions: A549, 10 μM, 48 hours; control group 75.31 ± 8.19
How it was run: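 Confluent A549 monolayers in 24-well plates were scratched, washed with PBS, then cultured 48 h in 2% FBS medium with peptide at 10 μM or PBS control, triplicate wells. Scratch width measured from images; migration rate (%) = (original − current width)/original width × 100.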

[9] = tested on: human liver cancer cells (HepG2); test: scratch assay, migration of HepG2 cells; conditions: HepG2, 10 μM, 48 hours; control group 71.01 ± 6.63
How it was run: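 HepG2 monolayers scratched, then cultured 48 h in 2% FBS medium with test polypeptides at 10 μM versus PBS control, triplicate wells. Migration rate (%) computed from original versus current scratch width in images.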

[10] = tested on: human prostate cancer cells (22RV1); test: scratch assay, migration of 22RV1 cells; conditions: 22RV1, 10 μM, 48 hours; control group 25.41 ± 5.01
How it was run: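 22RV1 monolayers (seeded 1-2×10^5 cells/well) were scratched, washed, then given 2% FBS medium with 10 μM polypeptide or PBS, triplicate wells, for 48 h. Migration rate (%) = (original − current scratch width)/original width ×100, from ≥3 images per well.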

[11] = tested on: human oral epidermoid carcinoma KB cells; test: scratch assay, migration of KB cells; conditions: 10 μM, 48 hours, control group 54.03 ± 4.21
How it was run: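 Monolayers of KB cells were scratched, washed with PBS, then cultured 48 hours in 2% FBS medium containing test polypeptide (10 μM) or PBS control, in triplicate wells. From images, migration rate (%) = (original − current scratch width)/original width × 100.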

[12] = tested on: human breast cancer cells (MDA-MB-453); test: scratch assay, migration of MDA-MB-453 cells; conditions: MDA-MB-453, 10 μM, 48 hours; control group 32.42 ± 2.04
How it was run: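 Confluent MDA-MB-453 monolayers were scratched, then treated with peptide at 10 μM in 2% FBS medium for 48 h, with a PBS control and triplicate wells. Migration rate (%) was taken as (original − current scratch width)/original width ×100 from images.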

[13] = tested on: human pancreatic cancer cells (PANC-1); test: scratch assay, migration of PANC-1 cells; conditions: PANC-1, 10 μM, 48 hours; control group 66.65 ± 3.37
How it was run: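 PANC-1 monolayers were scratched, then cultured for 48 h with 10 μM test compound in 2% FBS medium, in three parallel wells per group against a PBS control. Migration rate (%) was calculated as (original minus current scratch width) / original width × 100, from imaged wells.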

[14] = tested on: human thyroid cancer cells (FRO); test: scratch assay, migration of FRO cells; conditions: 10 μM, 48 hours, control group 60.34 ± 8.32
How it was run: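 FRO monolayers were scratched, washed, and cultured 48 h in 2% FBS medium with polypeptide derivatives at 10 μM or PBS control, three wells per group. Migration rate (%) = (original − current scratch width)/original width × 100, measured from images.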

| Substance | Migration rate (%) (mean ± SD, P) [1] | Migration rate (%) (mean ± SD, P) [2] | Migration rate (%) (mean ± SD, P) [3] | Migration rate (%) (mean ± SD, P) [4] | Migration rate (%) (mean ± SD, P) [5] | Migration rate (%) (mean ± SD, P) [6] | Migration rate (%) (mean ± SD, P) [7] | Migration rate (%) (mean ± SD, P) [8] | Migration rate (%) (mean ± SD, P) [9] | Migration rate (%) (mean ± SD, P) [10] | Migration rate (%) (mean ± SD, P) [11] | Migration rate (%) (mean ± SD, P) [12] | Migration rate (%) (mean ± SD, P) [13] | Migration rate (%) (mean ± SD, P) [14] |
| --- | --- | --- | --- | --- | --- | --- | --- | --- | --- | --- | --- | --- | --- | --- |
| N33: SEQ ID NO: 1 with deletion of positions 1-5, addition of one amino acid and PEG modification at the carboxyl terminal (LAKENVTQDAEDNC-{PEG}; reading uncertain) | 10.28 ± 2.06,** % | 9.98 ± 3.11,*** % | 18.97 ± 2.44,* % | 12.85 ± 3.12,*** % | 22.68 ± 3.02,* % | 40.73 ± 4.87,** % | 30.73 ± 5.87,** % | 33.22 ± 4.51,** % | 19.27 ± 8.14,*** % | 10.03 ± 2.15,* % | 6.01 ± 1.62,*** % | 10.76 ± 4.13,*** % | 39.27 ± 3.14,* % | 7.03 ± 2.02,*** % |
| N41: SEQ ID NO: 1 with addition of two amino acids at the amino terminal, deletion of position 18, PEG at the carboxyl terminal (FRYRVRFLAKENVTQDAED-{PEG}; reading uncertain) | 12.00 ± 4.73,** % | 10.01 ± 2.07,*** % | 5.19 ± 2.94,*** % | 5.78 ± 2.76,*** % | 14.75 ± 4.28,** % | 15.30 ± 8.69,*** % | 32.62 ± 3.79,** % | 56.03 ± 3.75,* % | 25.59 ± 6.26,*** % | 7.83 ± 1.84,** % | 20.01 ± 2.07,** % | 11.5 ± 3.23,*** % | 14.44 ± 7.40,*** % | 40.10 ± 2.73,* % |
| N49: SEQ ID NO: 1 with A7R, deletion of positions 1-2 and position 18, PEG modification at the carboxyl terminal (VRFLRKENVTQDAED-{PEG}; reading uncertain) | 6.29 ± 2.62,*** % | 6.51 ± 1.53,*** % | 7.29 ± 3.80,** % | 18.84 ± 2.99,** % | 13.41 ± 3.12,** % | 38.90 ± 5.49,** % | 29.37 ± 3.62,** % | 27.20 ± 6.23,** % | 16.45 ± 5.88,*** % | 6.18 ± 1.89,** % | 16.51 ± 3.93,** % | 15.79 ± 4.48,** % | 17.71 ± 7.65,*** % | 15.77 ± 2.99,** % |
| N23: SEQ ID NO: 1 with substitution A7R, deletion of position 11 and of positions 15-18 (YRVRFLRKENTQDAED) | 16.93 ± 3.67,* % | 11.13 ± 2.15,*** % | 10.20 ± 2.86,** % | 13.08 ± 2.64,*** % | 14.39 ± 2.33,** % | 13.24 ± 8.19,*** % | 30.38 ± 4.68,** % | 26.03 ± 4.21,*** % | 17.22 ± 7.12,*** % | 5.7 ± 3.23,** % | 10.57 ± 1.7,*** % | 18.2 ± 3.53,** % | 14.16 ± 8.36,*** % | 34.39 ± 4.10,* % |
| N21: SEQ ID NO: 1 with deletion of positions 1-5 and 15-18 and addition of one amino acid at the amino terminal (SLAKENVTQD) | 16.87 ± 6.77,* % | 8.29 ± 3.50,*** % | 10.43 ± 2.18,** % | 12.85 ± 3.12,*** % | 19.95 ± 5.47,* % | 13.58 ± 6.67,*** % | 40.02 ± 4.20,** % | 31.06 ± 4.94,** % | 15.00 ± 7.29,*** % | 12.79 ± 3.06,* % | 9.87 ± 2.84,*** % | 13.59 ± 2.07,** % | 10.54 ± 9.03,*** % | 30.45 ± 4.94,* % |
| N47: SEQ ID NO: 1 with N18R, deletion of positions 1-2, one amino acid added and PEG at the carboxyl terminal (VRFLAKENVTQDAEDRC-{PEG}; reading uncertain) | 10.27 ± 4.61,*** % | 8.82 ± 2.49,*** % | 18.41 ± 2.35,* % | 18.92 ± 2.11,** % | 21.82 ± 4.11,* % | 53.86 ± 3.61,* % | 23.86 ± 3.61,*** % | 54.66 ± 4.73,* % | 54.67 ± 7.02,* % | 5.92 ± 2.53,** % | 8.82 ± 1.89,*** % | 14.66 ± 2.51,*** % | 36.05 ± 5.62,** % | 16.47 ± 3.83,** % |
